Experimental data taken from PMC5840727, “Cysteine peptidases of Eudiplozoon nipponicum: a broad repertoire of structurally assorted cathepsins L in contrast to the scarcity of cathepsins B in an invasive species of haematophagous monogenean of common carp” (Parasites & Vectors, 2018).
Where a SMILES comes first, the peptide text is derived from it. Where no end group is shown, it is not given here. The star is where a group is joined. AMC = Cc1cc(=O)oc2cc(N*)ccc12; Cbz = O=C(OCc1ccccc1)*

Tests used:
Format in all cases: biochemical
[1] = target: T1, yrEnCL3 (EnCL3, E. nipponicum cathepsin L3) (Eudiplozoon nipponicum, UniProt A0A0K1L960); experiment: fluorogenic peptidase inhibition assay (AMC release); conditions: read-out: % remaining activity at 10 uM
T1 construct: Pichia pastoris X-33 (pPICZalpha B), His-tag; full transcript 368 residues

[2] = target: T2, yrEnCL1 (EnCL1, E. nipponicum cathepsin L1) (Eudiplozoon nipponicum, UniProt A0A0K1L8K1); experiment: as above; conditions: read-out: % remaining activity at 10 uM
T2 construct: Expressed as pro-enzyme in Pichia pastoris X-33 (pPICZalpha B), His-tag, self-processed in medium to ~28 kDa partially processed form, partially purified; full transcript 317 residues

[3] = target: T1, yrEnCL3 (EnCL3, E. nipponicum cathepsin L3); experiment: fluorogenic AMC release; conditions: 50 uM substrate, 2 mM DTT, citrate/phosphate buffer, pH optimum 6, 28 °C
[4] = target: T2, yrEnCL1 (EnCL1, E. nipponicum cathepsin L1); experiment: fluorogenic AMC release; conditions: 50 uM substrate, 2 mM DTT, citrate/phosphate buffer, pH optimum 5.5, 28 °C; partially purified enzyme
[5] = target: T3, yrEnCB (EnCB, E. nipponicum cathepsin B) (Eudiplozoon nipponicum, UniProt A0A2P1FSY4); experiment: fluorogenic AMC release; conditions: 50 uM substrate, 2 mM DTT, citrate/phosphate buffer, pH optimum 5, 28 °C
T3 construct: Pichia pastoris X-33 (pPICZalpha B), His-tag; self-processed, deglycosylated with endoglycosidase F1, ~29 kDa; full transcript 382 residues
T3 sequence (A0A2P1FSY4 entry or part of it): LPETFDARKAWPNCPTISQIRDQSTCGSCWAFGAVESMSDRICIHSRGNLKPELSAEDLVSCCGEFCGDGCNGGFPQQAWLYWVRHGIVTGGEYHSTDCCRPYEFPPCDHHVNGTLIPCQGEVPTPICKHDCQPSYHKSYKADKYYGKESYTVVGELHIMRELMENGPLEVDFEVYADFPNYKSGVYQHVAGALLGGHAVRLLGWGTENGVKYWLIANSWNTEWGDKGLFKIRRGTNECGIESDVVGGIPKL

T2 sequence (A0A0K1L8K1 entry or part of it): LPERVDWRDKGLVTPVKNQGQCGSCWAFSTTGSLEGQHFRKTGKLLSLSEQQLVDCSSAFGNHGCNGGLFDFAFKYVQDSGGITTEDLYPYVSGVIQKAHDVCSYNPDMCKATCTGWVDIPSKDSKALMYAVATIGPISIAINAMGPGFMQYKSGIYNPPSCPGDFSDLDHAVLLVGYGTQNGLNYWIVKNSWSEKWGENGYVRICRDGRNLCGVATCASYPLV
T1 sequence (A0A0K1L960 entry or part of it): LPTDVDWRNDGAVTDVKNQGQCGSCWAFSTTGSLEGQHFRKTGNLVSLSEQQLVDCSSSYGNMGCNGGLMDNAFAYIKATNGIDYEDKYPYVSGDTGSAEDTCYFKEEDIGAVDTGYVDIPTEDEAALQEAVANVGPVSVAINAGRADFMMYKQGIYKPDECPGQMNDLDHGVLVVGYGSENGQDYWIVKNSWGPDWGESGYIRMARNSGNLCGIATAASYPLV

In the case of `CCCNC(=O)[C@H]1O[C@@H]1C(=O)N[C@H](C(=O)N1CCC[C@H]1C(=O)O)[C@@H](C)CC` [CA-074, N-[L-3-trans-propylcarbamoyloxirane-2-carbonyl]-Ile-Pro-OH], the remaining activity at 10 µM [1] is reported as 45 to 65% and the remaining activity at 10 µM [2] is reported as ~70%.

In the case of `Cc1cc(=O)oc2cc(NC(=O)[C@H](CCCNC(=N)N)NC(=O)[C@H](CC(C)C)NC(=O)OCc3ccccc3)ccc12` [Z-Leu-Arg-AMC], the “fluorogenic AMC release” value [3] is reported as “Both EnCLs efficiently hydrolysed the FR substrate, and to a lesser extent the LR” and the “fluorogenic AMC release” value [4] is reported as “Both EnCLs efficiently hydrolysed the FR substrate, and to a lesser extent the LR”.

In the case of `Cc1cc(=O)oc2cc(NC(=O)[C@H](CCCNC(=N)N)NC(=O)[C@H](Cc3ccccc3)NC(=O)OCc3ccccc3)ccc12` [Z-Phe-Arg-AMC] (Cbz-Phe-Arg-{AMC}), the “fluorogenic AMC release” value [3] is reported as “Both EnCLs efficiently hydrolysed the FR substrate, and to a lesser extent the LR”, the “fluorogenic AMC release” value [5] is reported as “The preferred substrate for yrEnCB was the FR, while RR was cleaved less efficiently” and the “fluorogenic AMC release” value [4] is reported as “Both EnCLs efficiently hydrolysed the FR substrate, and to a lesser extent the LR”.

RKLLW-NH2 [iCL] showed a remaining activity at 10 µM [1] of ~40%.
